The target in series [1] is T1, human calcitonin receptor (hCTR2) (Homo sapiens, UniProt P30988).
T1 construct: expressed in transfected cells
T1 sequence (P30988 25-474): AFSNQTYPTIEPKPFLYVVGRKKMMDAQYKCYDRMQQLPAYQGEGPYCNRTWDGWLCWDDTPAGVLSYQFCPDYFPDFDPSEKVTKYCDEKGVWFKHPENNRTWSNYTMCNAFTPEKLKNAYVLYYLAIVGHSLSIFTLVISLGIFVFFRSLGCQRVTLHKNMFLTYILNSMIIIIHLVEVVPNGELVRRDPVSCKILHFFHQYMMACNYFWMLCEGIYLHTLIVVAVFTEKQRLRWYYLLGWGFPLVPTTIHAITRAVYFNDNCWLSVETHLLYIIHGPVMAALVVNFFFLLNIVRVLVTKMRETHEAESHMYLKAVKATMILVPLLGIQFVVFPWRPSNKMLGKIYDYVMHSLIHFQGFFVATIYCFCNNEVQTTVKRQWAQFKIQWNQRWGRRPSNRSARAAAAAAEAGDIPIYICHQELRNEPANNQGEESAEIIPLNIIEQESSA
The experiment in a line: hCTR2 cAMP assay (AlphaScreen) in COS7 cells. In kind it is cell-based. As to conditions: cAMP induction, COS7 cells expressing hCTR2; Table 1; read-out: hCTR2 EC50. An excerpt: The cell line COS7, originating from African Green Monkey kidney fibroblast cells, was used for establishment of the stable cell lines described below. The COS7 cellular background was used due to it being RAMP naïve, and as such it provides the best available system for testing of the monomeric hCTR and different heterodimeric amylin receptor subtypes functionally generated by introduction of the individual RAMPs.
A cell line expressing the human calcitonin receptor (hCTR2) was generated in the COS7 cellular background as stable clones. In brief, hCTR2 (GI: 4502547) was amplified by PCR using primers encoding terminal restriction sites for subcloning. The 5′-end primers additionally encoded a near Kozak consensus sequence to ensure efficient translation. The fidelity of the DNA encoding the receptor was confirmed by DNA sequencing. The PCR products encoding the receptor were subcloned into a mammalian expression vector containing a neomycin (G418) resistance marker. The mammalian expression vector encoding the receptor was transfected into COS7 cells by a standard liposome transfection method. 48 hours post-transfection, cells were seeded for limited dilution cloning and selected with 1 mg/ml G418 in the culture medium. After 3 weeks, surviving colonies of hCTR2-expressing cells were picked, propagated and tested in the amylin efficacy assay as described in Example 3 below. One hCTR2-expressing clone was chosen for compound profiling.
In vitro activity of test peptides at the hCTR2 and hAMYR3 receptors was assessed by measuring the induction of cAMP following stimulation of the receptor using the AlphaScreen® cAMP Assay kit from Perkin-Elmer.
Briefly, COS7 cells expressing hCTR2 (see Example 2, above) were seeded at 30-40,000 cells per well in 96-well microtiter plates coated with 0.01% poly-L-lysine, and grown for 1 day in culture in 100 μl growth medium [DMEM, 10% FCS, Penicillin (100 IU/ml), Streptomycin (100 μg/ml)]. On the day of analysis, growth medium was removed and the cells were washed once with 200 μl Tyrode buffer [Tyrode's Salts (9.6 g/I), 10 mM HEPES, pH 7.4]. Cells were incubated in 100 μl Tyrode buffer containing increasing concentrations of test peptides, 100 µM IBMX and 0.1% casein for 15 min at 37° C. The reaction was stopped by carefully decanting off the compound/buffer medium and replacing it with lysis/detection buffer (80 μl 0.1% w/v BSA, 5 mM HEPES, 0.3% v/v Tween-20 in deionized water). After incubation at room temperature for 10 min., the cAMP content of the resulting cell lysate was estimated according to the AlphaScreen® cAMP Assay manufacturer's instructions. EC50 values were estimated by computer-aided curve fitting using the 4-parameter logistic (4PL) non-linear model.

Series [2] can be described thus: Assessment of physical stability (Thioflavin T fibrillation). Format: physicochemical. Further details: key: FND = fibrillation not detected; FD = fibrillation detected. The following applies: 1 mg/ml, 40° C., ThT. The procedure: Solutions containing (i) 1 mg/ml of test peptide, 40 μM ThT and 50 mM phosphate (Ph) buffer (pH 7.0), (ii) 1 mg/ml of test peptide, 40 μM ThT and 50 mM histidine (His) buffer (pH 7.0), and (iii) 1 mg/ml of test peptide, 40 μM ThT and 50 mM acetate (Ac) buffer (pH 4.0), were loaded in a 96-well black fluorescence plate (clear bottom) in triplicate. Data were collected at fixed intervals of 10 min, each preceded by 300 s of automixing (agitation), over a period of 96 hours at 40° C. Physical stability, expressed as lag-time of fibril formation (in hours), was defined as the intersection between two linear regressions representing the initial stable phase and the growth phase.

Series [3] is described as follows: Assessment of chemical stability (RP-HPLC normalized purity). In kind it is physicochemical. The protocol: Samples of each test peptide were dissolved in MilliQ™ water, and the pH of the solution was adjusted to pH 4, pH 6, pH 7.5 or pH 9, respectively, using either HCl or NaOH. The final peptide concentration was 0.2 mg/ml. Samples were placed in glass vials and incubated at 40° C. The samples were analyzed by RP-HPLC on a C8 column with gradient elution using an ammonium formate/water eluent system, or on a C18 column with gradient elution using a trifluoroacetic acid/water eluent system. The area-percentage (area-%) of the main peak after incubation time T=t (relative to time T=0) was determined by UV spectroscopy at 220 nm.
The purity was first determined as follows:
Purity(area-%)=(area of main peak/total area of all peaks)×100.
The purity was then normalized between time points by setting purity at time 0 (T=0) to 100 for each pH value for a given peptide, as follows:
Normalised area-% at time t (T=t)=[area-%(T=t)/area-%(T=0)]×100.
The normalized purity values in Table 1 were determined after 7 days of incubation.
The chemical stability assessment described in Example 6 was repeated for four pairs of compounds, each differing only by the presence or absence of an Asn-Asn (N—N) doublet at positions 21 and 22.

The source of these data is patent US20210115104A1, “AMYLIN ANALOGUES” (Zealand Pharma A/S, priority 2015, published 2021).

SMILES strings stand for the structures. *1 amine or outer side, *2 acyl side, *3 side chain or, on linkers, in order; H or OH if unused. Where a SMILES comes first, the peptide text is derived from it. Bridges are numbered along the chain shown (N, C = ends). [ ]: non-standard residue; d: D form. The star is where a group is joined. C20 diacid = O=C(O)CCCCCCCCCCCCCCCCCCC(=O)*; Pro(4R-NH2) = N[C@H]1CN[C@H](C(=O)O)C1; γGlu = O=C(O)[C@H](CCC(=O)[*:2])N[*:1]; Hyp = O=C(O)[C@@H]1C[C@@H](O)CN1; NMeI = CC[C@H](C)[C@H](NC)C(=O)O; Sar = CNCC(=O)O

With `CC[C@H](C)[C@@H](C(=O)N[C@@H](CC(C)C)C(=O)N[C@@H](CO)C(=O)N[C@@H](CO)C(=O)N[C@H](C(=O)N[C@@H](CCC(=O)O)C(=O)N[C@H](C(=O)NCC(=O)N[C@@H](CO)C(=O)N[C@@H](CC(N)=O)C(=O)N[C@H](C(=O)N1C[C@H](O)C[C@H]1C(N)=O)[C@@H](C)O)C(C)C)[C@@H](C)O)N(C)C(=O)[C@H](C)NC(=O)CN(C)C(=O)[C@H](Cc1ccccc1)NC(=O)[C@H](CO)NC(=O)[C@H](CO)NC(=O)[C@H](CCCNC(=N)N)NC(=O)[C@@H](NC(=O)[C@H](CC(C)C)NC(=O)[C@H](Cc1ccccc1)NC(=O)[C@H](CC(N)=O)NC(=O)[C@H](C)NC(=O)[C@H](CC(C)C)NC(=O)[C@H](CCCNC(=N)N)NC(=O)[C@H](CCC(=O)O)NC(=O)[C@@H](NC(=O)[C@H](C)NC(=O)[C@@H]1CSSC[C@H](NC(=O)[C@H](CCCNC(=N)N)NC(=O)CC[C@H](NC(=O)CCCCCCCCCCCCCCCCCCC(=O)O)C(=O)O)C(=O)NCC(=O)N[C@@H]([C@@H](C)O)C(=O)N[C@@H](C)C(=O)N[C@@H]([C@@H](C)O)C(=O)N1)[C@@H](C)O)C(C)C` [Compound 17, [19CD]-isoGlu-R-C( )-GTAT-C( )-ATERLANFLVRSSF-Gly(Me)-A-Ile(Me)-LSSTEVGSNT-Hyp-NH2] ({C20 diacid-γGlu}-RCGTATCATERLANFLVRSSF[Sar]A[NMeI]LSSTEVGSNT[Hyp]-NH2; disulfide 2-7), in series [1], the 50% effective concentration (EC50) (commonly the concentration giving half of the maximal effect) came to 0.13 nM.

Take `CC[C@H](C)[C@@H](C(=O)N[C@@H](CC(C)C)C(=O)N[C@@H](CO)C(=O)N[C@@H](CO)C(=O)N[C@H](C(=O)N[C@@H](CCC(=O)O)C(=O)N[C@H](C(=O)NCC(=O)N[C@@H](CO)C(=O)N[C@@H](CO)C(=O)N[C@H](C(=O)N1C[C@H](N)C[C@H]1C(N)=O)[C@@H](C)O)C(C)C)[C@@H](C)O)N(C)C(=O)[C@H](C)NC(=O)CN(C)C(=O)[C@H](Cc1ccccc1)NC(=O)[C@H](CO)NC(=O)[C@H](CO)NC(=O)[C@H](CCCNC(=N)N)NC(=O)[C@@H](NC(=O)[C@H](CC(C)C)NC(=O)[C@H](Cc1ccccc1)NC(=O)[C@H](Cc1c[nH]cn1)NC(=O)[C@H](C)NC(=O)[C@H](CC(C)C)NC(=O)[C@H](CCCNC(=N)N)NC(=O)[C@H](CCC(=O)O)NC(=O)[C@@H](NC(=O)[C@H](C)NC(=O)[C@@H]1CSSC[C@H](NC(=O)[C@H](CCCNC(=N)N)NC(=O)CC[C@H](NC(=O)CCCCCCCCCCCCCCCCCCC(=O)O)C(=O)O)C(=O)NCC(=O)N[C@@H]([C@@H](C)O)C(=O)N[C@@H](C)C(=O)N[C@@H]([C@@H](C)O)C(=O)N1)[C@@H](C)O)[C@@H](C)O` [Compound 45, [19CD]-isoGlu-R-C( )-GTAT-C( )-ATERLAHFLTRSSF-Gly(Me)-A-Ile(Me)-LSSTEVGSST-Apr-NH2] ({C20 diacid-γGlu}-RCGTATCATERLAHFLTRSSF[Sar]A[NMeI]LSSTEVGSST[Pro(4R-NH2)]-NH2; disulfide 2-7): the concentration giving a half-maximal response (EC50) in series [1] came to 0.16 nM.

For the compound `CC[C@H](C)[C@H](NC(=O)[C@@H]1CCCN1C(=O)CNC(=O)[C@H](Cc1ccccc1)NC(=O)[C@H](CC(N)=O)NC(=O)[C@H](CC(N)=O)NC(=O)[C@H](CO)NC(=O)[C@H](CO)NC(=O)[C@H](Cc1c[nH]cn1)NC(=O)[C@H](Cc1c[nH]cn1)NC(=O)[C@H](CC(C)C)NC(=O)[C@H](Cc1ccccc1)NC(=O)[C@H](CCC(=O)O)NC(=O)[C@H](C)NC(=O)[C@H](CC(C)C)NC(=O)[C@H](CCCNC(=N)N)NC(=O)[C@H](CCC(N)=O)NC(=O)[C@@H](NC(=O)[C@H](C)NC(=O)[C@@H]1CSSC[C@H](NC(=O)[C@H](CCCNC(=N)N)NC(=O)CC[C@H](NC(=O)CCCCCCCCCCCCCCCCCCC(=O)O)C(=O)O)C(=O)N[C@@H](CC(N)=O)C(=O)N[C@@H]([C@@H](C)O)C(=O)N[C@@H](C)C(=O)N[C@@H]([C@@H](C)O)C(=O)N1)[C@@H](C)O)C(=O)N[C@@H](CC(C)C)C(=O)N1CCC[C@H]1C(=O)N1CCC[C@H]1C(=O)N[C@H](C(=O)N[C@@H](CC(N)=O)C(=O)N[C@H](C(=O)NCC(=O)N[C@@H](CO)C(=O)N[C@@H](CC(N)=O)C(=O)N[C@H](C(=O)N1CCC[C@H]1C(N)=O)[C@@H](C)O)C(C)C)[C@@H](C)O` [NN96, N-α-[(S)-4-carboxy-4-(19-carboxynonadecanoylamino)butyryl]-[Arg1, Glu14, His17, Pro37]-pramlintide-NH2, reference compound] ({C20 diacid-γGlu}-RCNTATCATQRLAEFLHHSSNNFGPILPPTNVGSNTP-NH2; disulfide 2-7), the “Fibrillation pH 4.0 (Ac)” value in series [2] (50 mM acetate buffer pH 4.0, 96 hours) is given as “FND”. The “Fibrillation pH 7.0 (His)” value in series [2] (50 mM histidine buffer pH 7.0, 96 hours) is “FD”. In series [2] (50 mM phosphate buffer pH 7.0, 96 hours), the “Fibrillation pH 7.0 (Phos.)” value was “FD”. Also, the “Normalized purity after 7 days, 40° C., pH 4” value in series [3] (pH 4, 0.2 mg/ml, 7 days, 40° C., Table 1) is “A (A = >90%)”. In addition, the “Normalized purity pH 4 (Table 5)” value in series [3] (pH 4, repeat of Example 6 for pairs with/without Asn-Asn at 21-22) is listed as “A (A = >90%)”. The “Normalized purity after 7 days, 40° C., pH 6” value in series [3] (pH 6, 0.2 mg/ml, 7 days, 40° C., Table 1) is reported as “A (A = >90%)”. The “Normalized purity pH 6 (Table 5)” value in series [3] (pH 6, repeat of Example 6 for pairs with/without Asn-Asn at 21-22) was “A (A = >90%)”. In addition, in series [3] (pH 7.5, 0.2 mg/ml, 7 days, 40° C., Table 1), the “Normalized purity after 7 days, 40° C., pH 7.5” value was “B (B = 70-90%)”. Further, the “Normalized purity pH 7.5 (Table 5)” value in series [3] (pH 7.5, repeat of Example 6 for pairs with/without Asn-Asn at 21-22) is “B (B = 70-90%)”. For the same compound, the “Normalized purity after 7 days, 40° C., pH 9” value in series [3] (pH 9, 0.2 mg/ml, 7 days, 40° C., Table 1) is “B (B = 70-90%)”. The “Normalized purity pH 9 (Table 5)” value in series [3] (pH 9, repeat of Example 6 for pairs with/without Asn-Asn at 21-22) was “B (B = 70-90%)”.
